Measured values reported in US6087355A, “Cephalosporin antibiotics” (Microcide Pharmaceuticals, Inc., priority 1996, dated 2000).
Counter-ions that a name gives are not always drawn.

Legend:
Test in all cases: In vitro MIC, agar dilution
Type in all cases: cell-based
E. coli ATCC 25992 = conditions: Escherichia coli, ATCC25992, read-out: minimum inhibitory concentration (MIC)
Description: (§1) The compounds of the invention were evaluated against several β-lactamresistant (for example methicillin-resistant, vancomycin resistant, and/or ampicillin-resistant) bacteria strains by determining the minimum inhibitory concentration (MIC, μg/ml) of each compound with respect to each strain. The MIC, the lowest concentration of antibiotic which inhibits growth of the test organism, was determined by the agar dilution method.
(§2) To determine the MIC for bacterial isolates, the test compound was incorporated in a series of two-fold dilutions into liquified Mueller-Hinton agar. Upon solidification, a number of different bacterial strains were spot inoculated with a replicating device onto the agar surface.
(§3) Aliquots of antimicrobial agents were prepared in phosphate buffered saline (PBS) at pH 7.2. Tween 20 or DMSO was used as a solubilizing vehicle as needed. Standard methods of vortexing, sonicating and gentle heat were used to facilitate solubilizing the test agent. […] A 1.28 mg/mL stock solution was used with a subsequent highest working concentration of 128 μg/mL. Serial two-fold dilutions were done through ≤0.25 μg/mL. Each drug level was tested in duplicate. Two-fold drug dilutions were done in sterile 50 mL tubes with a final drug volume of 5 mL. Upon the addition of 45 mL of molten agar, a 10-fold dilution resulted. Two, 25 mL. plates were then poured into 15×150 mm square Petri plates with grids and allowed to harden.
(§4) A control plate with a reference drug, either cefotaxime, vancomycin or imipenem, was used as the positive growth control. Stock concentrations of reference antibiotics were prepared and frozen at -80° C. […] All test plates were used within 24 hours of preparation.
(§5) Satisfactory results were obtained where the inoculum contained about 10^4 colony forming units (cfu)±0.5 logs. Starting with pure cultures of the test isolates on agar plates, a few isolated colonies were transferred to a tube of nutrient broth and allowed to grow 4-6 hours at 35-36° C. to reach log-phase growth. Dropwise addition of the broth culture to PBS was done to match a 0.5 McFarland turbidity standard equal to 10^8 cfu/mL. This was further diluted ten-fold in PBS to reach a working inoculum concentration of 10^7 cfu/mL. When 1 μL of the working inoculum was applied to the agar surface a concentration of about 10^4 cfu per spot was obtained.
(§6) Disposable sterile 1 μL loops were used to inoculate test plates, with each isolate in a designated grid on the agar plate. An alternate method of inoculation involved the use of a replica plater, a device with 48 steel pins allowing the simultaneous inoculation of multiple isolates. After the spots had dried, the plates were incubated at 35-36° C. for 16-20 hours. Endpoints were assessed as the minimum inhibitory concentration (MIC) of antimicrobial agent.

E. faecalis ATCC 29212 = conditions: Enterococcus faecalis, ATCC29212, read-out: minimum inhibitory concentration (MIC)
Description: as §1, §2, §3, §4, §5, §6

E. faecalis VanB(Van^R) = conditions: Enterococcus faecalis, read-out: minimum inhibitory concentration (MIC)
Description: as §1, §2, §3, §4, §5, §6

E. faecium A491(Amp^R) = conditions: Enterococcus faecium, read-out: minimum inhibitory concentration (MIC)
Description: as §1, §2, §3, §4, §5, §6

E. faecium ATCC 35667 = conditions: Enterococcus faecium, ATCC35667, read-out: minimum inhibitory concentration (MIC)
Description: as §1, §2, §3, §4, §5, §6

E. faecium VanA(Van^R) = conditions: Enterococcus faecium, read-out: minimum inhibitory concentration (MIC)
Description: as §1, §2, §3, §4, §5, §6

P. aeruginosa ATCC 27853 = conditions: Pseudomonas aeruginosa, ATCC27853, read-out: minimum inhibitory concentration (MIC)
Description: as §1, §2, §3, §4, §5, §6

[1] = tested on: S. aureus 76(Meth^R)(lac^+); conditions: Staphylococcus aureus, read-out: minimum inhibitory concentration (MIC)
Description: as §1, §2, §3, §4, §5, §6

[2] = tested on: S. aureus ATCC 13709(Meth^S); conditions: Staphylococcus aureus, ATCC13709, S. aureus ATCC 13709(Meth^S); read-out: minimum inhibitory concentration (MIC)
Description: as §1, §2, §3, §4, §5, §6

S. aureus ATCC 29213 = conditions: Staphylococcus aureus, ATCC29213, read-out: minimum inhibitory concentration (MIC)
Description: as §1, §2, §3, §4, §5, §6

[3] = tested on: S. aureus ATCC 33593(Meth^R); conditions: Staphylococcus aureus, ATCC33593, read-out: minimum inhibitory concentration (MIC)
Description: as §1, §2, §3, §4, §5, §6

[4] = tested on: S. aureus PC1(Meth^S)(lac^+); conditions: Staphylococcus aureus, read-out: minimum inhibitory concentration (MIC)
Description: as §1, §2, §3, §4, §5, §6

[5] = tested on: S. aureus Spain #356(Meth^R); conditions: Staphylococcus aureus, read-out: minimum inhibitory concentration (MIC)
Description: as §1, §2, §3, §4, §5, §6

[6] = tested on: S. haemolyticus 05(Meth^R); conditions: Staphylococcus haemolyticus, read-out: minimum inhibitory concentration (MIC)
Description: as §1, §2, §3, §4, §5, §6

[7] = tested on: S. aureus Col(Meth^R)(lac^-); conditions: Staphylococcus aureus, read-out: minimum inhibitory concentration (MIC)
Description: as §1, §2, §3, §4, §5, §6
The S. aureus Col strain is a high-level PBP2a producer, whereas S. aureus Col 8A, its isogenic partner, lacks PBP2a.

With `CC(=N)NCCSCc1cnccc1SC1=C(C(=O)O)N2C(=O)[C@@H](NC(=O)/C(=N\O)c3nc(N)sc3Cl)[C@H]2SC1` [Cmpd 54, (7R)-7-[(Z)-2-(2-amino-5-chlorothiazol-4-yl)-2-(hydroxyimino)acetamido]-3-(3-(N-acetamidinoyl)aminoethylthiomethylpyrid-4-ylthio)-3-cephem-4-carboxylate, trifluoroacetic acid salt] the MIC (E. coli ATCC 25992) was 8 µg/mL, the MIC (E. faecalis ATCC 29212) was 0.13 µg/mL and the MIC (E. faecalis VanB(Van^R)) was 0.25 µg/mL. The MIC (E. faecium A491(Amp^R)) was 8 µg/mL, the MIC (E. faecium ATCC 35667) was 0.5 µg/mL and the MIC (E. faecium VanA(Van^R)) was 1 µg/mL. The MIC (P. aeruginosa ATCC 27853) was greater than 32 µg/mL, the MIC [1] was 2 µg/mL and the MIC [2] was 0.25 µg/mL. The MIC (S. aureus ATCC 29213) was 0.25 µg/mL, the MIC [3] was 1 µg/mL and the MIC [4] was 0.25 µg/mL. It also gave an MIC [5] of 2 µg/mL, an MIC [6] of 2 µg/mL and an MIC [7] of 2 µg/mL.
`N=C(N)SCc1cnccc1SC1=C(C(=O)O)N2C(=O)[C@@H](NC(=O)/C(=N\O)c3nc(N)sc3Cl)[C@H]2SC1` [Cmpd 60, (7R)-7-[(Z)-2-(2-amino-5-chlorothiazol-4-yl)-2-(hydroxyimino)acetamido]-3-(3-isothioureidomethylpyrid-4-ylthio)-3-cephem-4-carboxylate, trifluoroacetic acid salt] showed an MIC (E. coli ATCC 25992) of 8 µg/mL, an MIC (E. faecalis ATCC 29212) of 0.5 µg/mL and an MIC (E. faecalis VanB(Van^R)) of 0.25 µg/mL. For the same molecule, the MIC (E. faecium A491(Amp^R)) was 16 µg/mL, the MIC (E. faecium ATCC 35667) was 1 µg/mL and the MIC (E. faecium VanA(Van^R)) was 2 µg/mL. For the same molecule, the MIC (P. aeruginosa ATCC 27853) was greater than 32 µg/mL, the MIC [1] was 1 µg/mL and the MIC [2] was 0.13 µg/mL. It also gave an MIC (S. aureus ATCC 29213) of 0.25 µg/mL, an MIC [3] of 2 µg/mL and an MIC [4] of 0.25 µg/mL. The MIC [5] was 2 µg/mL, the MIC [6] was 4 µg/mL and the MIC [7] was 2 µg/mL.
With `CN(C)C(=O)CNCCSCc1cnccc1SC1=C(C(=O)O)N2C(=O)[C@@H](NC(=O)/C(=N\O)c3nc(N)sc3Cl)[C@H]2SC1` [Cmpd 61, (7R)-7-[(Z)-2-(2-amino-5-chlorothiazol-4-yl)-2-(hydroxyimino)acetamido]-3-(3-(N,N-dimethylcarboxamidomethylaminoethylthiomethyl)pyrid-4-ylthio)-3-cephem-4-carboxylate, trifluoroacetic acid salt] the MIC (E. coli ATCC 25992) was 16 µg/mL, the MIC (E. faecalis ATCC 29212) was 0.25 µg/mL and the MIC (E. faecalis VanB(Van^R)) was 0.25 µg/mL. It also gave an MIC (E. faecium A491(Amp^R)) of 16 µg/mL, an MIC (E. faecium ATCC 35667) of 1 µg/mL and an MIC (E. faecium VanA(Van^R)) of 2 µg/mL. The MIC (P. aeruginosa ATCC 27853) was greater than 32 µg/mL, the MIC [1] was 4 µg/mL and the MIC [2] was 1 µg/mL. It also gave an MIC (S. aureus ATCC 29213) of 1 µg/mL, an MIC [3] of 4 µg/mL and an MIC [4] of 1 µg/mL. It also gave an MIC [5] of 4 µg/mL, an MIC [6] of 8 µg/mL and an MIC [7] of 4 µg/mL.
Molecule `CC(C)(N)CSCc1cnccc1SC1=C(C(=O)O)N2C(=O)[C@@H](NC(=O)/C(=N\O)c3nc(N)sc3Cl)[C@H]2SC1` [Cmpd 62, (7R)-7-[(Z)-2-(2-amino-5-chlorothiazol-4-yl)-2-(hydroxyimino)acetamido]-3-(3-(2-amino-2-methylpropylthiomethyl)pyrid-4-ylthio)-3-cephem-4-carboxylate, trifluoroacetic acid salt] has an MIC (E. coli ATCC 25992) of 8 µg/mL, an MIC (E. faecalis ATCC 29212) of 0.13 µg/mL and an MIC (E. faecalis VanB(Van^R)) of 0.25 µg/mL. For the same molecule, the MIC (E. faecium A491(Amp^R)) was 16 µg/mL, the MIC (E. faecium ATCC 35667) was 1 µg/mL and the MIC (E. faecium VanA(Van^R)) was 2 µg/mL. For the same molecule, the MIC (P. aeruginosa ATCC 27853) was greater than 32 µg/mL, the MIC [1] was 4 µg/mL and the MIC [2] was 0.5 µg/mL. It also gave an MIC (S. aureus ATCC 29213) of 0.5 µg/mL, an MIC [3] of 4 µg/mL and an MIC [4] of 0.5 µg/mL. It also gave an MIC [5] of 4 µg/mL, an MIC [6] of 4 µg/mL and an MIC [7] of 4 µg/mL.
